# In ChEMBL document CHEMBL4219224, “Structure based drug design and in vitro metabolism study: Discovery of N-(4-methylthiophenyl)-N,2-dimethyl-cyclopenta[d]pyrimidine as a potent microtubule targeting agent” (Bioorg Med Chem, 2018):
# Tests used:
# Format in all cases: functional
# [1] = system: U-251; test: Growth inhibition of human U251 cells incubated for 48 hrs by sulforhodamine B assay; settings: U-251, 48 h
# [2] = system: IGROV-1; test: Growth inhibition of human IGROV1 cells incubated for 48 hrs by sulforhodamine B assay; settings: IGROV-1, 48 h
# [3] = system: MCF7; test: Growth inhibition of human MCF7 cells incubated for 48 hrs by sulforhodamine B assay; settings: MCF7, 48 h
# [4] = system: SNB-75; test: Growth inhibition of human SNB75 cells incubated for 48 hrs by sulforhodamine B assay; settings: SNB-75, 48 h
# [5] = system: HCC 2998; test: Growth inhibition of human HCC2998 cells incubated for 48 hrs by sulforhodamine B assay; settings: HCC 2998, 48 h
# [6] = system: SF-295; test: Growth inhibition of human SF295 cells incubated for 48 hrs by sulforhodamine B assay; settings: SF-295, 48 h
# [7] = system: NCI-H23; test: Growth inhibition of human NCI-H23 cells incubated for 48 hrs by sulforhodamine B assay; settings: NCI-H23, 48 h
# [8] = system: MOLT-4; test: Growth inhibition of human MOLT4 cells incubated for 48 hrs by sulforhodamine B assay; settings: MOLT-4, 48 h
# [9] = system: Hs-578T; test: Growth inhibition of human Hs578T cells incubated for 48 hrs by sulforhodamine B assay
# [10] = system: MDA-MB-435; test: Growth inhibition of human MDA-MB-435 cells incubated for 48 hrs by sulforhodamine B assay; settings: MDA-MB-435, 48 h
# [11] = system: SR; test: Growth inhibition of human SR cells incubated for 48 hrs by sulforhodamine B assay
# [12] = system: K562; test: Growth inhibition of human K562 cells incubated for 48 hrs by sulforhodamine B assay; settings: K562, 48 h
# [13] = system: Malme-3M; test: Growth inhibition of human MALME-3M cells incubated for 48 hrs by sulforhodamine B assay
# [14] = system: HT-29; test: Growth inhibition of human HT-29 cells incubated for 48 hrs by sulforhodamine B assay; settings: HT-29, 48 h
# [15] = system: NCI/ADR-RES; test: Growth inhibition of human NCI/ADR-RES cells incubated for 48 hrs by sulforhodamine B assay
# [16] = system: SF-539; test: Growth inhibition of human SF539 cells incubated for 48 hrs by sulforhodamine B assay; settings: SF-539, 48 h
# [17] = system: CCRF-CEM; test: Growth inhibition of human CCRF-CEM cells incubated for 48 hrs by sulforhodamine B assay
# [18] = system: COLO 205; test: Growth inhibition of human COLO205 cells incubated for 48 hrs by sulforhodamine B assay; settings: COLO 205, 48 h
# [19] = system: NCI-H322M; test: Growth inhibition of human NCI-H322M cells incubated for 48 hrs by sulforhodamine B assay
# [20] = system: KM12; test: Growth inhibition of human KM12 cells incubated for 48 hrs by sulforhodamine B assay; settings: KM12, 48 h
# [21] = system: HOP-92; test: Growth inhibition of human HOP92 cells incubated for 48 hrs by sulforhodamine B assay; settings: HOP-92, 48 h
# [22] = system: HL-60(TB); test: Growth inhibition of human HL-60(TB) cells incubated for 48 hrs by sulforhodamine B assay; settings: HL-60, 48 h
# [23] = system: EKVX; test: Growth inhibition of human EKVX cells incubated for 48 hrs by sulforhodamine B assay
# [24] = system: LOX IMVI; test: Growth inhibition of human LOXIMVI cells incubated for 48 hrs by sulforhodamine B assay
# [25] = system: A549; test: Growth inhibition of human A549/ATCC cells incubated for 48 hrs by sulforhodamine B assay; settings: A549, 48 h
# [26] = system: SK-MEL-28; test: Growth inhibition of human SK-MEL-28 cells incubated for 48 hrs by sulforhodamine B assay; settings: SK-MEL-28, 48 h
# [27] = system: ACHN; test: Growth inhibition of human ACHN cells incubated for 48 hrs by sulforhodamine B assay
# [28] = system: MDA-MB-231; test: Growth inhibition of human MDA-MB-231 cells incubated for 48 hrs by sulforhodamine B assay; settings: MDA-MB-231, 48 h
# [29] = system: M14; test: Growth inhibition of human M14 cells incubated for 48 hrs by sulforhodamine B assay; settings: M14, 48 h
# [30] = system: SN12C; test: Growth inhibition of human SN12C cells incubated for 48 hrs by sulforhodamine B assay
# [31] = system: DU-145; test: Growth inhibition of human DU145 cells incubated for 48 hrs by sulforhodamine B assay; settings: DU-145, 48 h
# [32] = system: OVCAR-8; test: Growth inhibition of human OVCAR8 cells incubated for 48 hrs by sulforhodamine B assay; settings: OVCAR-8, 48 h
# [33] = system: HCT-116; test: Growth inhibition of human HCT116 cells incubated for 48 hrs by sulforhodamine B assay; settings: HCT-116, 48 h
# [34] = system: UO-31; test: Growth inhibition of human UO31 cells incubated for 48 hrs by sulforhodamine B assay; settings: UO-31, 48 h
# [35] = system: OVCAR-4; test: Growth inhibition of human OVCAR4 cells incubated for 48 hrs by sulforhodamine B assay; settings: OVCAR-4, 48 h
# [36] = system: OVCAR-3; test: Growth inhibition of human OVCAR3 cells incubated for 48 hrs by sulforhodamine B assay; settings: OVCAR-3, 48 h
# [37] = system: PC-3; test: Growth inhibition of human PC3 cells incubated for 48 hrs by sulforhodamine B assay; settings: PC-3, 48 h
# [38] = system: SW-620; test: Growth inhibition of human SW620 cells incubated for 48 hrs by sulforhodamine B assay; settings: SW-620, 48 h
# [39] = system: NCI-H460; test: Growth inhibition of human NCI-H460 cells incubated for 48 hrs by sulforhodamine B assay; settings: NCI-H460, 48 h
# [40] = system: HCT-15; test: Growth inhibition of human HCT15 cells incubated for 48 hrs by sulforhodamine B assay; settings: HCT-15, 48 h
# [41] = system: SK-MEL-5; test: Growth inhibition of human SK-MEL-5 cells incubated for 48 hrs by sulforhodamine B assay; settings: SK-MEL-5, 48 h
# [42] = system: OVCAR-5; test: Growth inhibition of human OVCAR5 cells incubated for 48 hrs by sulforhodamine B assay; settings: OVCAR-5, 48 h
# [43] = system: NCI-H522; test: Growth inhibition of human NCI-H522 cells incubated for 48 hrs by sulforhodamine B assay; settings: NCI-H522, 48 h
# [44] = system: A498; test: Growth inhibition of human A498 cells incubated for 48 hrs by sulforhodamine B assay; settings: A498, 48 h
# [45] = system: SNB-19; test: Growth inhibition of human SNB19 cells incubated for 48 hrs by sulforhodamine B assay; settings: SNB-19, 48 h
# [46] = system: SK-OV-3; test: Growth inhibition of human SKOV3 cells incubated for 48 hrs by sulforhodamine B assay; settings: SK-OV-3, 48 h
# [47] = system: BT-549; test: Growth inhibition of human BT549 cells incubated for 48 hrs by sulforhodamine B assay; settings: BT-549, 48 h
# [48] = system: MDA-MB-468; test: Growth inhibition of human MDA-MB-468 cells incubated for 48 hrs by sulforhodamine B assay; settings: MDA-MB-468, 48 h
# [49] = system: UACC-62; test: Growth inhibition of human UACC62 cells incubated for 48 hrs by sulforhodamine B assay; settings: UACC-62, 48 h
# [50] = system: 786-0; test: Growth inhibition of human 786-0 cells incubated for 48 hrs by sulforhodamine B assay; settings: 786-0, 48 h
# [51] = system: RXF 393; test: Growth inhibition of human RXF393 cells incubated for 48 hrs by sulforhodamine B assay; settings: RXF 393, 48 h
# [52] = system: TK-10; test: Growth inhibition of human TK10 cells incubated for 48 hrs by sulforhodamine B assay; settings: TK-10, 48 h
# [53] = system: HOP-62; test: Growth inhibition of human HOP62 cells incubated for 48 hrs by sulforhodamine B assay; settings: HOP-62, 48 h
# [54] = system: RPMI-8226; test: Growth inhibition of human RPMI8226 cells incubated for 48 hrs by sulforhodamine B assay; settings: RPMI-8226, 48 h
# [55] = system: SF-268; test: Growth inhibition of human SF268 cells incubated for 48 hrs by sulforhodamine B assay; settings: SF-268, 48 h
# [56] = system: CAKI-1; test: Growth inhibition of human Caki1 cells incubated for 48 hrs by sulforhodamine B assay; settings: CAKI-1, 48 h
# [57] = system: NCI-H226; test: Growth inhibition of human NCI-H226 cells incubated for 48 hrs by sulforhodamine B assay; settings: NCI-H226, 48 h
# [58] = system: SK-MEL-2; test: Growth inhibition of human SK-MEL-2 cells incubated for 48 hrs by sulforhodamine B assay; settings: SK-MEL-2, 48 h
smiles,measurement,setting,value
CC(=O)O[C@H]1C(=O)[C@@]2(C)[C@H]([C@H](OC(=O)c3ccccc3)[C@]3(O)C[C@H](OC(=O)[C@H](O)[C@@H](NC(=O)c4ccccc4)c4ccccc4)C(C)=C1C3(C)C)[C@]1(OC(C)=O)CO[C@@H]1C[C@@H]2O [PACLITAXEL],GI50,[1],6.3 nM
same,GI50,[2],6.3 nM
same,GI50,[3],4 nM
same,GI50,[4],7.9 nM
same,GI50,[5],1 nM
same,GI50,[6],25 nM
same,GI50,[7],6.3 nM
same,GI50,[8],5 nM
same,GI50,[9],5 nM
same,GI50,[10],4 nM
same,GI50,[11],6.3 nM
same,GI50,[12],6.3 nM
same,GI50,[13],50 nM
same,GI50,[14],5 nM
same,GI50,[15],630 nM
same,GI50,[16],5 nM
same,GI50,[17],5 nM
same,GI50,[18],7.9 nM
same,GI50,[19],12.5 nM
same,GI50,[20],5 nM
same,GI50,[21],25 nM
same,GI50,[22],4 nM
same,GI50,[23],79 nM
same,GI50,[24],5 nM
same,GI50,[25],6.3 nM
same,GI50,[26],400 nM
same,GI50,[27],158 nM
same,GI50,[28],12.5 nM
same,GI50,[29],5 nM
same,GI50,[30],6.3 nM
same,GI50,[31],6.3 nM
same,GI50,[32],7.9 nM
same,GI50,[33],4 nM
same,GI50,[34],125 nM
same,GI50,[35],630 nM
same,GI50,[36],4 nM
same,GI50,[37],6.3 nM
same,GI50,[38],4 nM
same,GI50,[39],6.3 nM
same,GI50,[40],125 nM
same,GI50,[41],5 nM
same,GI50,[42],7.9 nM
same,GI50,[43],15.8 nM
same,GI50,[44],7.9 nM
same,GI50,[45],10 nM
same,GI50,[46],6.3 nM
same,GI50,[47],4 nM
same,GI50,[48],12.5 nM
same,GI50,[49],5 nM
same,GI50,[50],39 nM
same,GI50,[51],15.8 nM
same,GI50,[52],19.9 nM
same,GI50,[53],19 nM
same,GI50,[54],19.9 nM
same,GI50,[55],5 nM
same,GI50,[56],158 nM
same,GI50,[57],3.9 nM
same,GI50,[58],400 nM
